This is an account of results in patent publication US20160159814A1, “GLYCINE TRANSPORTER INHIBITOR” (TAISHO PHARMACEUTICAL CO., LTD., priority 2013, published 2016).

One assay has as its target T1, human type 1 glycine transporter (GlyT1) (Homo sapiens, UniProt P48067).
T1 construct: T98G cells (glioma cells) expressing human type 1 glycine transporter (GlyT1) were used; endogenous in cells; host or cells: T98G cells (human glioma cells)
T1 sequence (P48067 1-706): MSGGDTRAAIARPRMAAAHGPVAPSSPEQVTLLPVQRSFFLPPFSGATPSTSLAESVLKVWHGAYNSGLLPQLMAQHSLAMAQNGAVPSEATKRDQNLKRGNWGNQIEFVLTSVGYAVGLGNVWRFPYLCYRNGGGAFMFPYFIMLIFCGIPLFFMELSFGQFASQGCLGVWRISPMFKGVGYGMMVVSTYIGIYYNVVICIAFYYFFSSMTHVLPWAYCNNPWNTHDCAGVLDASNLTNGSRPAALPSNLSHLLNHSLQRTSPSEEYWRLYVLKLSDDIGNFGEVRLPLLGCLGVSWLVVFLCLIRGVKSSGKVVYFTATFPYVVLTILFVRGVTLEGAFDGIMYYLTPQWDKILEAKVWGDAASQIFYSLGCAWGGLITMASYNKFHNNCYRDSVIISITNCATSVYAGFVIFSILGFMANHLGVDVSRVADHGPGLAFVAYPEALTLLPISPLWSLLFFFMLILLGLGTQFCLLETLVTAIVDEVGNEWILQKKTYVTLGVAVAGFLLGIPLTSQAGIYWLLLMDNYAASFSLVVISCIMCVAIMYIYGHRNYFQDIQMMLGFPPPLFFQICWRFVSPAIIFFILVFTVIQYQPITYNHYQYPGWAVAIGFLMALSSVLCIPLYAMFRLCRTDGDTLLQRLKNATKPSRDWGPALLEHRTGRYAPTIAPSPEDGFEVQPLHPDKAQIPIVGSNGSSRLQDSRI
As to the kind of experiment: Glycine uptake inhibition experiment ([3H] glycine uptake in T98G cells expressing GlyT1). It counts as cell-based.
Details: not given
An outline of the steps: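 T98G glioma cells expressing human GlyT1 were pretreated 10 min with compound in HEPES buffer pH 7.4 (0.2% BSA), then incubated with compound plus 250 nM final [3H]glycine for 15 min at room temperature. Intracellular radioactivity was counted after NaOH lysis; 10 μM ALX5407 defined non-specific uptake. IC50 came from 10^−9–10^−5 M curves.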
Take `CC(O)c1c(F)ccc2c1C(F)(F)C(=O)N2Cc1ccnc(C#N)c1` (single isomer, unassigned) [Compound 182, 4-{[3,3,5-trifluoro-4-(1-hydroxyethyl)-2-oxo-2,3-dihydro-1H-indol-1-yl]methyl}pyridine-2-carbonitrile]: it took 1700 nM to reach half-maximal inhibition (IC50). This lies in the single-digit micromolar range. On the same count and under the same terms, the same measure for `C[C@H](O)c1cccc2c1C(F)(F)C(=O)N2Cc1cc(OC(F)F)ccn1` [Compound 245, 1-{[4-(difluoromethoxy)pyridin-2-yl]methyl}-3,3-difluoro-4-[(1S)-1-hydroxyethyl]-1,3-dihydro-2H-indol-2-one]: 110 nM; for `O=C1N(Cc2cncc(Cl)c2)c2c(F)ccc(C(O)C(F)F)c2C1(F)F` (single isomer, unassigned) [Compound 254, 1-[(5-chloropyridin-3-yl)methyl]-4-(2,2-difluoro-1-hydroxyethyl)-3,3,7-trifluoro-1,3-dihydro-2H-indol-2-one]: 6800 nM; for `C[C@H](O)c1cccc2c1C(F)(F)C(=O)N2Cc1ccc(C2CC2)nc1` [Compound 198, 1-[(6-cyclopropylpyridin-3-yl)methyl]-3,3-difluoro-4-[(1S)-1-hydroxyethyl]-1,3-dihydro-2H-indol-2-one]: 160 nM.

As to `C[C@H](O)c1cccc2c1C(F)(F)C(=O)N2Cc1ccc(C(F)(F)F)nc1Cl` [Compound 239, 1-{[2-chloro-6-(trifluoromethyl)pyridin-3-yl]methyl}-3,3-difluoro-4-[(1S)-1-hydroxyethyl]-1,3-dihydro-2H-indol-2-one], the IC50 (as a rule, the midpoint of a concentration-inhibition curve) turned out to be 220 nM. `O=C1N(Cc2cncc(C3CC3)c2)c2cccc(C(O)C(F)F)c2C1(F)F` (single isomer, unassigned) [Compound 179, 1-[(5-cyclopropylpyridin-3-yl)methyl]-4-(2,2-difluoro-1-hydroxyethyl)-3,3-difluoro-1,3-dihydro-2H-indol-2-one] displayed a concentration for half-maximal inhibition (IC50) of 480 nM. This IC50 lies about 2.2-fold higher than the previous one. Same read-out and setting: the value for `Cn1c(CN2C(=O)C(F)(F)c3c(C(O)C(F)F)cccc32)nc2cc(F)ccc2c1=O` (single isomer, unassigned) [Compound 178, 2-{[4-(2,2-difluoro-1-hydroxyethyl)-3,3-difluoro-2-oxo-2,3-dihydro-1H-indol-1-yl]methyl}-7-fluoro-3-methylquinazolin-4(3H)-one] was 44 nM; that for `O=C1N(Cc2ccnc(C3CC3)c2)c2cccc(C(O)C(F)F)c2C1(F)F` (single isomer, unassigned) [Compound 180, 1-[(2-cyclopropylpyridin-4-yl)methyl]-4-(2,2-difluoro-1-hydroxyethyl)-3,3-difluoro-1,3-dihydro-2H-indol-2-one] was 53 nM.

Still in this assay, the particulars now being: glycine uptake inhibition.
`CC(O)c1cccc2c1C(F)(F)C(=O)N2Cc1cccc(Cl)n1` (single isomer, unassigned) [Compound 4] showed a half-maximal inhibitory concentration (IC50) of 6.5 nM.

In turn, `C[C@H](O)c1cccc2c1C(F)(F)C(=O)N2Cc1ccc(C(F)(F)F)nc1` [Compound 118, 3,3-difluoro-4-[(1S)-1-hydroxyethyl]-1-{[6-(trifluoromethyl)pyridin-3-yl]methyl}-1,3-dihydro-2H-indol-2-one] gave an IC50 of 27 nM. The same measure, in the same setting: the same measure for `CCC(O)c1cccc2c1C(F)(F)C(=O)N2Cc1cccc(Cl)n1` (centres unmarked) [Compound 15, 1-[(6-chloropyridin-2-yl)methyl]-3,3-difluoro-4-(1-hydroxypropyl)-1,3-dihydro-2H-indol-2-one]: 180 nM. On the same count and under the same terms, the same measure for `C[C@H](O)c1cccc2c1C(F)(F)C(=O)N2Cc1nc2ccccc2c(=O)n1C` [Compound 41, 2-({3,3-difluoro-4-[(1S)-1-hydroxyethyl]-2-oxo-2,3-dihydro-1H-indol-1-yl}methyl)-3-methylquinazolin-4(3H)-one]: 29 nM; for `C[C@H](O)c1cccc2c1C(F)(F)C(=O)N2Cc1ccccn1` [Compound 60, 3,3-difluoro-4-[(1S)-1-hydroxyethyl]-1-(pyridin-2-ylmethyl)-1,3-dihydro-2H-indol-2-one]: 230 nM; for `C[C@H](O)c1cccc2c1C(F)(F)C(=O)N2Cc1ccccc1` [Compound 54, 1-benzyl-3,3-difluoro-4-[(1S)-1-hydroxyethyl]-1,3-dihydro-2H-indol-2-one]: 20 nM.

With `C[C@H](O)c1cccc2c1C(F)(F)C(=O)N2Cc1ccc2ncoc2c1` [Compound 127, 1-(1,3-benzoxazol-6-ylmethyl)-3,3-difluoro-4-[(1S)-1-hydroxyethyl]-1,3-dihydro-2H-indol-2-one], it took 29 nM to reach half-maximal inhibition (IC50).

Turning to `CC(O)c1cccc2c1C(F)(F)C(=O)N2Cc1cncc(Cl)c1` (single isomer, unassigned) [Compound 7, 1-[(5-chloropyridin-3-yl)methyl]-3,3-difluoro-4-(1-hydroxyethyl)-1,3-dihydro-2H-indol-2-one], the IC50 stood at 14 nM. Turning to `O=C1N(Cc2cnc3ccccc3c2)c2cccc([C@@H](O)C(F)(F)F)c2C1(F)F` [Compound 133, 3,3-difluoro-1-(quinolin-3-ylmethyl)-4-[(1R)-2,2,2-trifluoro-1-hydroxyethyl]-1,3-dihydro-2H-indol-2-one], the IC50 worked out at 62 nM. `C[C@H](O)c1cccc2c1C(F)(F)C(=O)N2Cc1cccc(C(F)(F)F)c1` [Compound 58, 3,3-difluoro-4-[(1S)-1-hydroxyethyl]-1-[3-(trifluoromethyl)benzyl]-1,3-dihydro-2H-indol-2-one] displayed an IC50 of 6.6 nM. Same read-out and setting: the value for `C[C@H](O)c1cccc2c1C(F)(F)C(=O)N2Cc1c2ccccc2nn1C` [Compound 93] was 54 nM. Molecule `O=C1N(Cc2ccnc(F)c2)c2cccc(C(O)C(F)F)c2C1(F)F` (centres unmarked) [Compound 150, 4-(2,2-difluoro-1-hydroxyethyl)-3,3-difluoro-1-[(2-fluoropyridin-4-yl)methyl]-1,3-dihydro-2H-indol-2-one] displayed a half-inhibitory concentration (IC50) of 310 nM. The same measure, in the same setting: the same measure for `C[C@H](O)c1cccc2c1C(F)(F)C(=O)N2Cc1cncc(-n2ccnn2)c1` [Compound 87, 3,3-difluoro-4-[(1S)-1-hydroxyethyl]-1-{[5-(1H-1,2,3-triazol-1-yl)pyridin-3-yl]methyl}-1,3-dihydro-2H-indol-2-one]: 1500 nM. As for `N#Cc1cccc(CN2C(=O)C(F)(F)c3c(C(O)C(F)(F)F)cccc32)n1` (centres unmarked) [Compound 13, 6-{[3,3-difluoro-2-oxo-4-(2,2,2-trifluoro-1-hydroxyethyl)-2,3-dihydro-1H-indol-1-yl]methyl}pyridine-2-carbonitrile], the IC50 was determined as 96 nM. The same measure, in the same setting: the value for `C[C@H](O)c1cccc2c1C(F)(F)C(=O)N2Cc1nc2ccccc2o1` [Compound 81, 1-(1,3-benzoxazol-2-ylmethyl)-3,3-difluoro-4-[(1S)-1-hydroxyethyl]-1,3-dihydro-2H-indol-2-one] was 30 nM; that for `O=C1N(Cc2cccc(Cl)n2)c2cccc(C(O)C(F)F)c2C1(F)F` (single isomer, unassigned) [Compound 126, 1-[(6-chloropyridin-2-yl)methyl]-4-(2,2-difluoro-1-hydroxyethyl)-3,3-difluoro-1,3-dihydro-2H-indol-2-one] was 7.9 nM. On the same count and under the same terms, the same measure for `Cn1c(CN2C(=O)C(F)(F)c3c([C@@H](O)C(F)(F)F)cccc32)nc2ccccc21` [Compound 137]: 150 nM.

The same assay, now with this note: table section whose head prints (μm).
For the molecule `O=C1N(Cc2cncc(OC(F)F)c2)c2cccc(C(O)C(F)F)c2C1(F)F` (single isomer, unassigned) [Compound 258, 4-(2,2-difluoro-1-hydroxyethyl)-1-{[5-(difluoromethoxy)pyridin-3-yl]methyl}-3,3-difluoro-1,3-dihydro-2H-indol-2-one], the IC50 is 120 nM.
